In brackets after ≈: the same amount, converted by molar mass. Where two headings read alike, the source gives them in different places.
Legend:
P. aeruginosa 01 = experiment: In vitro antibacterial assay (MIC); assay type: cell-based, Pseudomonas aeruginosa; settings: iron deficient media, duplicate assays
Procedure: (§1) Antibacterial assay results of new aztreonam derivatives (27, 30, 32 and 37), aztreonam (9a) and earlier data of conjugate 23 are shown in Table 1. The assays were performed using iron deficient media appropriate for screening siderophore conjugates as described previously. […] As expected, none of the compounds were active against the Gram-positive S. aureus. […] Of special interest is the significant inhibitory activity against problematic strains of A. baumannii and P. aeruginosa, including cephalosporinase and carbapenemase producers (A. baumannii TCC 17978 pNT320 and ATCC 17978 pNT165, respectively) which are on the World Health Organization (WHO) list of multi-drug resistant (MDR) pathogens of greatest concern.

P. aeruginosa ISR14-003 = experiment: In vitro antibacterial assay (MIC); assay type: cell-based, Pseudomonas aeruginosa; settings: iron deficient media, duplicate assays
Procedure: as §1

P. aeruginosa ARC 3502 = experiment: In vitro antibacterial assay (MIC); assay type: cell-based, Pseudomonas aeruginosa; settings: iron deficient media, duplicate assays
Procedure: as §1

P. aeruginosa ISR14-004 = experiment: In vitro antibacterial assay (MIC); assay type: cell-based, Pseudomonas aeruginosa; settings: iron deficient media, duplicate assays
Procedure: as §1

A. baumannii ATCC 17961 = experiment: In vitro antibacterial assay (MIC); assay type: cell-based, Acinetobacter baumannii; settings: duplicate assays
Procedure: as §1

[1] = test system: A. baumannii ATCC 17978 pNT320 (cephalosporinase producing strain); experiment: In vitro antibacterial assay (MIC); assay type: cell-based, Acinetobacter baumannii; settings: iron deficient media, duplicate assays
Procedure: as §1

[2] = test system: A. baumannii ATCC BAA 1797; experiment: In vitro antibacterial assay (MIC); assay type: cell-based, Acinetobacter baumannii; settings: duplicate assays
Procedure: as §1

[3] = test system: A. baumannii ATCC 17978 pNT165 (carbapenemase producing strain); experiment: In vitro antibacterial assay (MIC); assay type: cell-based, Acinetobacter baumannii; settings: iron deficient media, duplicate assays
Procedure: as §1

E. coli DCO = experiment: In vitro antibacterial assay (MIC); assay type: cell-based, Escherichia coli; settings: iron deficient media, duplicate assays
Procedure: as §1

Gram-negative bacteria [4] = experiment: Antibacterial activity, summary statements; assay type: cell-based; settings: in words; for activity against Gram-negative bacteria that are resistant to aztreonam: iron deficient media
Procedure: as §1

P. mirabilis X235 = experiment: In vitro antibacterial assay (MIC); assay type: cell-based; settings: iron deficient media, duplicate assays
Procedure: as §1

B. dolosa AU0018 = experiment: In vitro antibacterial assay (MIC); assay type: cell-based
Procedure: as §1

[5] = test system: K. pneumoniae ATCC 8303 X68; experiment: In vitro antibacterial assay (MIC); assay type: cell-based; settings: duplicate assays
Procedure: as §1

E. aerogenes X816 = experiment: In vitro antibacterial assay (MIC); assay type: cell-based; settings: iron deficient media, duplicate assays
Procedure: as §1

S. aureus SG511 = experiment: In vitro antibacterial assay (MIC); assay type: cell-based; settings: iron deficient media, duplicate assays
Procedure: as §1

C. freundii ATCC 19063 = experiment: In vitro antibacterial assay (MIC); assay type: cell-based; settings: iron deficient media, duplicate assays
Procedure: as §1

P. aeruginosa KW799/wt = experiment: In vitro antibacterial assay (MIC); assay type: cell-based, Pseudomonas aeruginosa; settings: iron deficient media, duplicate assays
Procedure: as §1

Gram-negative bacteria [6] = settings: in words, cited from earlier work
[7] = Pseudomonas aeruginosa, 01, P. aeruginosa 01
[8] = Pseudomonas aeruginosa, ISR14003, P. aeruginosa ISR14-003, read-out: MIC
[9] = Pseudomonas aeruginosa, ARC3502, P. aeruginosa ARC 3502, read-out: MIC
[10] = P. aeruginosa ISR14-004, read-out: MIC
[11] = Pseudomonas aeruginosa, ISR14004, P. aeruginosa ISR14-004, read-out: MIC
[12] = Acinetobacter baumannii, ATCC17961, iron deficient media
[13] = A. baumannii ATCC 17978 pNT320, cephalosporinase producing
[14] = Acinetobacter baumannii, ATCC17978, A. baumannii ATCC 17978 pNT320, cephalosporinase producing
[15] = Acinetobacter baumannii, BAA1797, iron deficient media
[16] = Acinetobacter baumannii, ATCC17978, A. baumannii ATCC 17978 pNT165, carbapenemase producing
[17] = Proteus mirabilis, X235, P. mirabilis X235
[18] = Klebsiella pneumoniae, ATCC8303, iron deficient media
[19] = Klebsiella aerogenes, X816, E. aerogenes X816
[20] = Citrobacter freundii, ATCC19063, C. freundii ATCC 19063
[21] = Pseudomonas aeruginosa, KW799/WT

SMILES	MIC (P. aeruginosa 01; P. aeruginosa 01)	MIC (P. aeruginosa 01; [7])	MIC (P. aeruginosa ISR14-003; [8])	MIC (P. aeruginosa ARC 3502; [9])	MIC (P. aeruginosa ISR14-004; [10])	MIC (P. aeruginosa ISR14-004; [11])	MIC (A. baumannii ATCC 17961; [12])	MIC [1, 13]	MIC [1, 14]	MIC [2, 15]	MIC [3, 16]	MIC (E. coli DCO; Escherichia coli)	activity compared to bis-catechol conjugate 23 (Gram-negative bacteria [4])	activity against Gram-negative bacteria that are resistant to aztreonam (Gram-negative bacteria [4])	MIC (P. mirabilis X235; [17])	MIC [5, 18]	MIC (E. aerogenes X816; [19])	MIC (S. aureus SG511; Staphylococcus aureus)	MIC (C. freundii ATCC 19063; [20])	MIC (P. aeruginosa KW799/wt)	also measured
C[C@H]1[C@H](NC(=O)/C(=N\OC(C)(C)C(=O)NCCNC(=O)CN(CCCCNC(=O)c2cccc(O)c2O)C(=O)c2cccc(O)c2O)c2csc(N)n2)C(=O)N1S(=O)(=O)O [Compound 27, (2S,3S)-3-((Z)-18-(2-Aminothiazol-4-yl)-7-(2,3-dihydroxybenzoyl)-1-(2,3-dihydroxy-phenyl)-15,15-dimethyl-1,9,14-trioxo-16-oxa-2,7,10,13,17-pentaazanonadec-17-en-19-amido)-2-methyl-4-oxoazetidine-1-sulfonic acid]	0.6 µM (≈ 0.527 µg/mL)	0.8 µM (≈ 0.702 µg/mL)	0.8 µM (≈ 0.702 µg/mL)	0.8 µM (≈ 0.702 µg/mL)	0.2 µM (≈ 0.176 µg/mL)	0.4 µM (≈ 0.351 µg/mL)	0.8 µM (≈ 0.702 µg/mL)	0.8 µM (≈ 0.702 µg/mL)	1.6 µM (≈ 1.4 µg/mL)	3 µM (≈ 2.63 µg/mL)	6 µM (≈ 5.27 µg/mL)	0.025 µM (≈ 0.0219 µg/mL)	comparable to or better than	notably and unexpectedly active	< 0.013 µM	0.05 µM (≈ 0.0439 µg/mL)	0.05 µM (≈ 0.0439 µg/mL)	> 25 µM	0.4 µM (≈ 0.351 µg/mL)		MIC (P. aeruginosa ISR14-003; P. aeruginosa ISR14-003, read-out: MIC): 0.4 µM (≈ 0.351 µg/mL); MIC (P. aeruginosa ARC 3502; P. aeruginosa ARC 3502, read-out: MIC): 1.6 µM (≈ 1.4 µg/mL); MIC ([3]; A. baumannii ATCC 17978 pNT165, carbapenemase producing): 6.25 µM (≈ 5.49 µg/mL); MIC (B. dolosa AU0018; Burkholderia dolosa, AU0018): > 25 µM
C[C@H]1[C@H](NC(=O)/C(=N\OC(C)(C)C(=O)NCCNC(=O)CN(CCCCNC(=O)c2ccc(O)c(O)c2Cl)C(=O)c2ccc(O)c(O)c2Cl)c2csc(N)n2)C(=O)N1S(=O)(=O)O [Compound 37]		1.2 µM (≈ 1.14 µg/mL)	0.4 µM (≈ 0.379 µg/mL)	4.5 µM (≈ 4.26 µg/mL)		0.2 µM (≈ 0.189 µg/mL)	0.8 µM (≈ 0.757 µg/mL)		0.4 µM (≈ 0.379 µg/mL)	0.8 µM (≈ 0.757 µg/mL)	25 µM (≈ 23.7 µg/mL)	0.4 µM (≈ 0.379 µg/mL)	comparable to or better than	notably and unexpectedly active	< 0.025 µM	0.2 µM (≈ 0.189 µg/mL)	0.8 µM (≈ 0.757 µg/mL)		< 0.025 µM		MIC (P. aeruginosa KW799/wt; [21]): 0.2 µM (≈ 0.189 µg/mL)
C[C@H]1[C@H](NC(=O)/C(=N\OC(C)(C)C(=O)NOCC(=O)NCCNC(=O)CN(CCCCNC(=O)c2cccc(O)c2O)C(=O)c2cccc(O)c2O)c2csc(N)n2)C(=O)N1S(=O)(=O)O [Compound 30, (2S,3S)-3-((Z)-22-(2-Aminothiazol-4-yl)-7-(2,3-dihydroxybenzoyl)-1-(2,3-dihydroxyphenyl)-19,19-dimethyl-1,9,14,18-tetraoxo-16,20-dioxa-2,7,10,13,17,21-hexaazatricos-21-en-23-amido)-2-methyl-4-oxoazetidine-1-sulfonic acid]	0.4 µM (≈ 0.38 µg/mL)	0.8 µM (≈ 0.761 µg/mL)	0.8 µM (≈ 0.761 µg/mL)				0.8 µM (≈ 0.761 µg/mL)	1.6 µM (≈ 1.52 µg/mL)	3 µM (≈ 2.85 µg/mL)	1.6 µM (≈ 1.52 µg/mL)		0.025 µM (≈ 0.0238 µg/mL)	comparable to or better than	notably and unexpectedly active	< 0.013 µM	0.05 µM (≈ 0.0475 µg/mL)	0.05 µM (≈ 0.0475 µg/mL)	> 25 µM	0.4 µM (≈ 0.38 µg/mL)	0.4 µM (≈ 0.38 µg/mL)	MIC (P. aeruginosa KW799/wt; [21]): 0.8 µM (≈ 0.761 µg/mL); MIC (B. dolosa AU0018; Burkholderia dolosa, AU0018): > 25 µM
CCN(C(C)C)C(C)C.C[C@H]1[C@H](NC(=O)/C(=N\OC(C)(C)C(=O)NOCC(=O)O)c2csc(N)n2)C(=O)N1S(=O)(=O)O [Compound 32, (Z)-2-(2-Aminothiazol-4-yl)-5,5-dimethyl-1-(((2S,3S)-2-methyl-4-oxo-1-sulfoazetidin-3-yl)amino)-1,6-dioxo-4,8-dioxa-3,7-diazadec-2-en-10-oic acid DIPEA salt]								>25 µM												25 µM	MIC (P. aeruginosa ISR14-003; P. aeruginosa ISR14-003): >25/(>25) μM; MIC (P. aeruginosa ARC 3502; P. aeruginosa ARC 3502): >25/(>25) μM; MIC (P. aeruginosa ISR14-004; P. aeruginosa ISR14-004): >25/(25) μM; MIC (A. baumannii ATCC 17961; iron deficient media): >25 µM; MIC ([2]; iron deficient media): >25 µM; MIC (E. coli DCO): 1.6 µM; activity compared to aztreonam (9a) (Gram-negative bacteria [4]): activity comparable to that of aztreonam; MIC (P. mirabilis X235; P. mirabilis X235): 0.05 µM; MIC (B. dolosa AU0018; B. dolosa AU0018, iron deficient media, duplicate assays): >25/(>25) μM; MIC ([5]; iron deficient media): 0.8 µM; MIC (E. aerogenes X816; E. aerogenes X816): 3 µM; MIC (S. aureus SG511): >25 µM; MIC (C. freundii ATCC 19063; C. freundii ATCC 19063): 3 µM
C[C@H]1[C@H](NC(=O)/C(=N\OC(C)(C)C(=O)O)c2csc(N)n2)C(=O)N1S(=O)(=O)O [Aztreonam 9a, aztreonam, reference compound]				> 25 µM	6 µM (≈ 2.61 µg/mL)		> 25 µM		> 25 µM	> 25 µM	> 25 µM					0.2 µM (≈ 0.0871 µg/mL)	1.6 µM (≈ 0.697 µg/mL)	> 25 µM		3 µM (≈ 1.31 µg/mL)	activity against problematic Gram-negative bacteria (Gram-negative bacteria [6]; including carbapenemase and cephalosporinase producing strains of P. aeruginosa and A. baumannii): not active; MIC (B. dolosa AU0018; Burkholderia dolosa, B. dolosa AU0018, iron deficient media, duplicate assays, read-out: MIC): > 25 µM; MIC (E. aerogenes X816; E. aerogenes X816): 0.8 µM (≈ 0.348 µg/mL)
CC1(C)[C@H](NC(=O)/C(=N\OCc2cc(=O)c(O)cn2O)c2csc(N)n2)C(=O)N1OS(=O)(=O)O [BAL 30072]																					in vitro activity (Gram-negative bacteria [6]; compounds without free carboxylic acids): retained potent in vitro activity

Source: US20250009891A1, “CONJUGATES OF MONOCYCLIC BETA-LACTAMS AND SIDEROPHORE MIMETICS” (UNIVERSITY OF NOTRE DAME DU LAC, priority 2021, published 2025)
